Measurements as given in patent publication EP3008041B1, “3-CARBAMOYL-1-METHYL[…], PROCESS FOR ITS PREPARATION AND ITS USE” (Uniwersytet Jagiellonski, priority 2013, dated 2014).
Like-named read-outs stand apart in the source and are kept apart here.

Experiments:
[1] = tested on: plasma coagulation system
Protocol: Coagulation parameters: prothrombin time (PT), activated partial thromboplastin time (aPTT), fibrinogen concentration by Caluss and the prothrombin time percentage ratio (Quick index) were assessed in frozen plasma (-80°C) using a Caog-Chrom 3003 Bio-ksel Grudzi ? dz device.

[2] = Protocol: The complete blood count was assessed approximately 2 minutes after collection in fresh citrated blood using an automatic Horiba ABC Vet device. The following parameters were assessed: white blood cell count (WBC), red blood cell count (RBC), haemoglobin (HGB), haematocrit (HCT), mean corpuscular volume (MCV), mean corpuscular haemoglobin (MCH), mean corpuscular haemoglobin concentration (MCHC) and platelet count (PLT).
platelets = details: hypertensive rats after arterial thrombosis, 3 days per os twice a day (FIG. 2)
Protocol: The blood was diluted with 0.9% NaCl at a ratio of 1:1 and stirred in an aggregation cuvette at 1200 rpm. Samples of the stirred blood were collected after 20, 40 and 60 min and at "0" time and mixed with a cold solution of ASA (final concentration: 500 µM) at a ratio of 1:1. In these samples, TxB2 was determined using the ELISA assay, according to the manual provided by the manufacturer of the reagent kit.

[3] = pharmacokinetics of MNA in rat plasma after single intravenous administration; format: in vivo, rats; details: 100 mg/kg
Protocol: (§1) A method using high performance liquid chromatography combined with tandem mass spectrometry (LC/ESI-MS/MS) was developed and validated to determine concentrations of 1-methylnicotinamide (MNA) in rat plasma. […] The pharmacokinetic parameters were determined by a non-compartmental model using Phoenix WinNonlin software (Pharsight, Sannyvale, CA, USA).

[4] = pharmacokinetics of MNA in rat plasma after single intragastric administration; format: in vivo, rats; details: 100 mg/kg; for AUC0→∞ / Cmax / F / MRT / t0.5 / tmax: MNA in rat plasma, single intragastric administration
Protocol: as §1

[5] = TG technique under a nitrogen atmosphere
Protocol: Thermal stability was determined using the TG technique under a nitrogen atmosphere (with the use of the Mettler Toledo Star TGA/DSC 1 device).

normotensive rats = details: 30 mg/kg i.v., single dose 10 min before induction of thrombosis
Protocol: The normotensive and hypertensive rats were then anesthetised with pentorbital (40 mg/kg, i.p.). After removing the skin in the neck region, an approximately 0.5 cm long section of the left common carotid artery was isolated. To avoid haemorrhaging, the isolation was performed by tearing the surrounding tissues of the artery without the use of sharp instruments. The method of arterial thrombosis (according to Schumacher et al., 1996) with own modification (Kramkowski et al., 2012) involves damage to the endothelium isolated from a section of the artery by electric current (1 mA, 5-15 V, 10 min.). The anode is a stainless steel wire with a bent hook-shaped tip placed in a holder to remain stable during the experiment. Its tip was placed under the artery. A piece of parafilm was placed under the artery to keep it isolated. The cathode was a needle inserted subcutaneously in the hind limb region. Once the stimulation is completed, the formation of thrombus lasts 45 minutes. After this time, the artery was ligated at both sides of the thrombus, and the damaged fragment containing the thrombus was excised. The thrombus was quantitatively extracted from the artery and transferred to a previously tared microscope cover slip. The thrombi were allowed to dry (at room temperature and average humidity) and weighed not earlier than after 24 hours.

[6] = hypertensive (2K1C) rats
fibrin = details: hypertensive (2K1C) rats, 30 mg/kg i.v.
Remark: listed apart in the source
[7] = colour change from pale yellow to brown
[8] = hypertensive (2K1C) rats, 30 mg/kg i.v.
[9] = hypertensive (2K1C) rats, 30 mg/kg p.o.
[10] = normotensive rats, 10 mg/kg i.v.
[11] = normotensive rats, 30 mg/kg i.v.
[12] = normotensive rats, 100 mg/kg i.v.

Work on `C[n+]1cccc(C(N)=O)c1.O=N[O-]` [MNANO2, 3-carbamoyl-1-methylpyridinium nitrite] yielded an APTT [1, 8] of 18.46 ± 0.81 s, a Fglevel [1, 8] of 2.36 ± 0.13 ng/mL and a PT [1, 8] of 17.40 ± 0.69 s. For the same compound, the QUICK [1, 8] was 63.50±5.04, the APTT [1, 9] was 17.79 ± 0.62 s and the Fglevel [1, 9] was 2.61 ± 0.10 ng/mL. For the same compound, the PT [1, 9] was 18.16 ± 0.47 s, the QUICK [1, 9] was 62.00±4.01 and the APTT [1, 10] was 2.00 ± 2.68 s. For the same compound, the Fglevel [1, 10] was 2.04 ± 0.09 ng/mL, the PT [1, 10] was 18.23 ± 0.68 s and the QUICK [1, 10] was 61.75±5.42. It also gave an APTT [1, 11] of 25.67 ± 6.07 s, a Fglevel [1, 11] of 2.15 ± 0.28 ng/mL and a PT [1, 11] of 18.10 ± 0.81 s. It also gave a QUICK [1, 11] of 63.00±7.57, an APTT [1, 12] of 26.27 ± 2.89 s and a Fglevel [1, 12] of 1.96 ± 0.11 ng/mL. The PT [1, 12] was 19.17 ± 0.27 s, the QUICK [1, 12] was 53.33±1.67 and the HCT [2, 8] was 38.35±0.49%. For the same compound, the HGB [2, 8] was 12.27 ± 0.16 g/dL, the MCH [2, 8] was 17.51±0.26 pg per cell and the MCHC [2, 8] was 31.65 ± 0.21 g/dL. For the same compound, the MCV [2, 8] was 54.86 ± 0.60 fL, the PLT [2, 8] was 621±18 103/µL and the RBC [2, 8] was 7.36±0.19 106/µL. For the same compound, the WBC [2, 8] was 2.87±0.35 106/µL, the HCT [2, 9] was 40.07±0.03% and the HGB [2, 9] was 13.23 ± 0.24 g/dL. For the same compound, the MCH [2, 9] was 18.77±0.71 pg per cell, the MCHC [2, 9] was 32.97 ± 0.58 g/dL and the MCV [2, 9] was 57.00 ± 1.53 fL. For the same compound, the PLT [2, 9] was 630±12 103/µL, the RBC [2, 9] was 7.05±0.18 106/µL and the WBC [2, 9] was 2.93±0.26 106/µL. For the same compound, the HCT [2, 10] was 30.03±1.26%, the HGB [2, 10] was 12.15 ± 0.26 g/dL and the MCH [2, 10] was 25.05±0.53 pg per cell. The MCHC [2, 10] was 40.93 ± 1.00 g/dL, the MCV [2, 10] was 61.25 ± 0.25 fL and the PLT [2, 10] was 493±17 10^3/µl. For the same compound, the RBC [2, 10] was 4.90±0.18 106/µl, the WBC [2, 10] was 1.95±0.35 106/µl and the HCT [2, 11] was 29.07±1.61%. It also gave an HGB [2, 11] of 12.30 ± 0.26 g/dL, an MCH [2, 11] of 25.73±0.92 pg per cell and an MCHC [2, 11] of 42.40 ± 1.32 g/dL. The MCV [2, 11] was 60.68 ± 0.33 fL, the PLT [2, 11] was 489±23 10^3/µl and the RBC [2, 11] was 4.80±0.29 106/µl. The WBC [2, 11] was 1.77±0.43 106/µl, the HCT [2, 12] was 33.33±1.31% and the HGB [2, 12] was 12.67 ± 0.47 g/dL. For the same compound, the MCH [2, 12] was 25.53±0.48 pg per cell, the MCHC [2, 12] was 37.97 ± 0.18 g/dL and the MCV [2, 12] was 62.00 ± 1.16 fL. For the same compound, the PLT [2, 12] was 566±56 10^3/µl, the RBC [2, 12] was 5.38±0.21 106/µl and the WBC [2, 12] was 1.12±0.19 106/µl. The “thromboxane B2 (TxB2) production by platelets ex vivo” value (platelets) was “inhibition of thromboxane B2 (TxB2) production”, the “AUC0→∞” value [3] was 6,948,716 ± 1,810,664 µg·min/L and the Cl [3] was 15 ± 3 mL/min/kg. The Co [3] was 138,078 ± 33,208 µg/L, the Vss [3] was 0.63 ± 0.1 L/kg and the t0.5 [3] was 61.7 ± 19.6 min. For the same compound, the “AUC0→∞” value [4] was 638,056 ± 167,631 µg·min/L, the Cmax [4] was 8,881 ± 5,506 µg/L and the F [4] was 9.18%. For the same compound, the MRT [4] was 232 ± 38.3 min, the t0.5 [4] was 178.4 ± 12.2 min and the tmax [4] was 15 ± 10 min. The “concentration in rat plasma compared to MNACl administration” value ([4]; intragastric administration) was “three times higher”, the “time of occurrence of the maximum concentration compared to MNACl administration” value ([4]; intragastric administration) was “four times shorter” and the Tonset [5] was 195 °C. For the same compound, the Tonset5% [5] was 170 °C, the Thrombus weight (normotensive rats) was 0.78 ± 0.05 mg and the “Concentration of MNA in plasma after collecting thrombus” value ([6]; 30 mg/kg i.v.) was 8.72 ± 4.90 µM. The “Concentration of MNA in plasma after collecting thrombus” value ([6]; 30 mg/kg p.o.) was 5.76 ± 3.78 µM, the “Generation of fibrin (AUC)” value (fibrin) was 186.00±10.23 and the solubility (DMSO) was “soluble”. For the same compound, the solubility (diethyl ether) was “not soluble”, the solubility (ethanol) was “soluble” and the solubility (hexane) was “not soluble”. For the same compound, the solubility (methanol) was “soluble”, the solubility (water) was “soluble” and the “stability of aqueous solutions” value [7] was “not stable over time”.
For `C[n+]1cccc(C(N)=O)c1.[Cl-]` [MNACl, 3-carbamoyl-1-methylpyridinium chloride, reference compound], the “AUC0→∞” value [3] was 4,362,231 ± 999,203 µg·min/L, the Co [3] was 141,311 ± 56,500 µg/L and the clearance [3] was 24 ± 5 mL/min/kg. It also gave a t0.5 [3] of 162.5 ± 76.2 min, a Vd ([3]; read-out: Vss) of 1.06 ± 0.35 L/kg and an MRT ([3]; rat, plasma, iv) of roughly 43 min. The “AUC0→∞” value [4] was 407,132 ± 164,906 µg·min/L, the F [4] was 9.33% and the t0.5 [4] was 247.4 ± 201 min. For the same compound, the Cmax ([4]; po, read-out: Cmax) was 2810 ng/mL, the MRT ([4]; po, read-out: MRT (converted)) was 359 min and the tmax ([4]; po, read-out: tmax (converted)) was 57.5 min.
